Source: patent publication US9029325B2, “Amylin analogues and pharmaceutical compositions thereof” (Novo Nordisk A/S, priority 2011, dated 2015)
Starred links: 1 amine or outer side, 2 acyl side, 3 side chain; linkers in the order of their positions; H or OH if unused. Positions of bridges follow the written chain, without caps; N, C: chain ends. Residues, ends and D or L forms follow the SMILES beside them. *: point of attachment. C20 diacid = O=C(O)CCCCCCCCCCCCCCCCCCC(=O)*; γGlu = O=C(O)[C@H](CCC(=O)[*:2])N[*:1]

Experiment: Assay (III) ThT fibrillation assay for physical stability
Format: physicochemical
Details: for Th T pH 4.0 lag time (h): 37° C., orbital shaking 960 rpm; for ThT pH 4.0 lag time: Table 9
Description: Low physical stability of a polypeptide may lead to amyloid fibril formation, which is observed as well-ordered, thread-like macromolecular structures in the sample eventually resulting in gel formation. This has traditionally been measured by visual inspection of the sample. However, that kind of measurement is very subjective and depending on the observer. Therefore, the application of a small molecule indicator probe is much more advantageous. Thioflavin T (ThT) is such a probe and has a distinct fluorescence signature when binding to fibrils [Naiki et al. (1989) Anal. Biochem. 177, 244-249; LeVine (1999) Methods. Enzymol. […], 274-284].
The time course for fibril formation can be described by a sigmoidal curve with the following expression [Nielsen et al. (2001) Biochemistry 40, 6036-6046]:
[formula] Here, F is the ThT fluorescence at the time t. The constant t0 is the time needed to reach 50% of maximum fluorescence. The two important parameters describing fibril formation are the lag-time calculated by t0−2T and the apparent rate constant kapp=1/τ.
Few of those intermediates nucleate to form a template onto which further intermediates may assembly and the fibrillation proceeds. The lag-time corresponds to the interval in which the critical mass of nucleus is built up and the apparent rate constant is the rate with which the fibril itself is formed.
Samples were prepared freshly before each assay. Each sample composition is described in each example. The pH of the sample was adjusted to the desired value using appropriate amounts of concentrated NaOH and HClO4 or HCl. Thioflavin T was added to the samples from a stock solution in H2O to a final concentration of 1 μM.
Sample aliquots of 200 μl were placed in a 96 well microtiter plate (Packard OptiPlate™-96, white polystyrene). Usually, four or eight replica of each sample (corresponding to one test condition) were placed in one column of wells. The plate was sealed with Scotch Pad (Qiagen).
Incubation at given temperature, shaking and measurement of the ThT fluorescence emission were done in a Fluoroskan Ascent FL fluorescence platereader or Varioskan platereader (Thermo Labsystems). The temperature was adjusted to 37° C. The orbital shaking was adjusted to 960 rpm with an amplitude of 1 mm in all the presented data. Fluorescence measurement was done using excitation through a 444 nm filter and measurement of emission through a 485 nm filter.
Each run was initiated by incubating the plate at the assay temperature for 10 min. The plate was measured every 20 minutes for a desired period of time. Between each measurement, the plate was shaken and heated as described.
The measurement points were saved in Microsoft Excel format for further processing and curve drawing and fitting was performed using GraphPad Prism. The background emission from ThT in the absence of fibrils was negligible. The data points are typically a mean of four or eight samples and shown with standard deviation error bars. Only data obtained in the same experiment (i.e. samples on the same plate) are presented in the same graph ensuring a relative measure of fibrillation […].
The data set may be fitted to Eq. (1). However, since full sigmodial curves in this case are not always achieved during the measurement time, the degree of fibrillation is expressed as ThT fluorescence tabulated as the mean of the samples and shown with the standard deviation at various time points.
The polypeptide concentration in each of the tested formulations were measured both before application in the ThT fibrillation assay (“Initial”) and after completion of the ThT fibrillation (“After ThT assay”). Concentrations were determined by reverse HPLC methods using a pramlintide standard as a reference. Before measurement after completion 150 μl was collected from each of the replica and transferred to an Eppendorf tube. These were centrifuged at 30000 G for 40 mins. […]

Structure (SMILES)	Th T pH 4.0 lag time (h)	ThT pH 4.0 lag time
CC[C@H](C)[C@H](NC(=O)[C@@H]1CCCN1C(=O)CNC(=O)[C@H](Cc1ccccc1)NC(=O)[C@H](CC(N)=O)NC(=O)[C@@H](NC(=O)[C@H](CO)NC(=O)[C@H](CO)NC(=O)[C@H](Cc1c[nH]cn1)NC(=O)[C@H](Cc1c[nH]cn1)NC(=O)[C@H](CC(C)C)NC(=O)[C@H](Cc1ccccc1)NC(=O)[C@H](CCC(=O)O)NC(=O)[C@H](C)NC(=O)[C@H](CC(C)C)NC(=O)[C@H](CCCNC(=N)N)NC(=O)[C@H](CCC(N)=O)NC(=O)[C@@H](NC(=O)[C@H](C)NC(=O)[C@@H]1CSSC[C@H](NC(=O)[C@H](CCCCN)NC(=O)CC[C@H](NC(=O)CCCCCCCCCCCCCCCCCCC(=O)O)C(=O)O)C(=O)N[C@@H](CC(N)=O)C(=O)N[C@@H]([C@@H](C)O)C(=O)N[C@@H](C)C(=O)N[C@@H]([C@@H](C)O)C(=O)N1)[C@@H](C)O)[C@@H](C)O)C(=O)N[C@@H](CC(C)C)C(=O)N1CCC[C@H]1C(=O)N1CCC[C@H]1C(=O)N[C@H](C(=O)N[C@@H](CC(N)=O)C(=O)N[C@H](C(=O)NCC(=O)N[C@@H](CO)C(=O)N[C@@H](CC(N)=O)C(=O)N[C@H](C(=O)N1CCC[C@H]1C(N)=O)[C@@H](C)O)C(C)C)[C@@H](C)O [Example 146, N-alpha-[(S)-4-Carboxy-4-(19-carboxynonadecanoylamino)butyryl]-[Glu14, His17, Thr21, Pro37]-pramlintide] ({C20 diacid-γGlu}-KCNTATCATQRLAEFLHHSSTNFGPILPPTNVGSNTP-NH2; disulfide 2-7 (inferred); C-terminus assumed)	>45 h	>45 hr
CC[C@H](C)[C@H](NC(=O)[C@@H]1CCCN1C(=O)CNC(=O)[C@H](Cc1ccccc1)NC(=O)[C@H](CC(N)=O)NC(=O)[C@H](CCC(N)=O)NC(=O)[C@H](CO)NC(=O)[C@H](CO)NC(=O)[C@H](Cc1c[nH]cn1)NC(=O)[C@H](CCCNC(=N)N)NC(=O)[C@H](CC(C)C)NC(=O)[C@H](Cc1ccccc1)NC(=O)[C@H](CCC(=O)O)NC(=O)[C@H](C)NC(=O)[C@H](CC(C)C)NC(=O)[C@H](CCCNC(=N)N)NC(=O)[C@H](CCC(N)=O)NC(=O)[C@@H](NC(=O)[C@H](C)NC(=O)[C@@H]1CSSC[C@H](NC(=O)[C@H](CCC(=O)O)NC(=O)[C@H](CCCNC(=N)N)NC(=O)[C@H](CCC(=O)O)NC(=O)CC[C@H](NC(=O)CCCCCCCCCCCCCCCCCCC(=O)O)C(=O)O)C(=O)N[C@@H](CC(N)=O)C(=O)N[C@@H]([C@@H](C)O)C(=O)N[C@@H](C)C(=O)N[C@@H]([C@@H](C)O)C(=O)N1)[C@@H](C)O)C(=O)N[C@@H](CC(C)C)C(=O)N1CCC[C@H]1C(=O)N1CCC[C@H]1C(=O)N[C@H](C(=O)N[C@@H](CC(N)=O)C(=O)N[C@H](C(=O)NCC(=O)N[C@@H](CO)C(=O)N[C@@H](CC(N)=O)C(=O)N[C@H](C(=O)N1CCC[C@H]1C(N)=O)[C@@H](C)O)C(C)C)[C@@H](C)O [Example 161, N-alpha-[(S)-4-Carboxy-4-(19-carboxynonadecanoylamino)butyryl]-Glu-Arg-[Glu1, Glu14, Arg17, Gln21, Pro37]-pramlintide] ({C20 diacid-γGlu}-ERECNTATCATQRLAEFLRHSSQNFGPILPPTNVGSNTP-NH2; disulfide 4-9 (inferred); C-terminus assumed)	>45 h	>45 hr
CC[C@H](C)[C@H](NC(=O)[C@@H]1CCCN1C(=O)CNC(=O)[C@H](Cc1ccccc1)NC(=O)[C@H](CO)NC(=O)[C@H](CO)NC(=O)[C@H](CO)NC(=O)[C@H](CO)NC(=O)[C@H](CCCNC(=N)N)NC(=O)[C@@H](NC(=O)[C@H](CC(C)C)NC(=O)[C@H](Cc1ccccc1)NC(=O)[C@H](CCC(=O)O)NC(=O)[C@H](C)NC(=O)[C@H](CC(C)C)NC(=O)[C@H](CCCNC(=N)N)NC(=O)[C@H](CCC(N)=O)NC(=O)[C@@H](NC(=O)[C@H](C)NC(=O)[C@@H]1CSSC[C@H](NC(=O)[C@H](CCCCN)NC(=O)CC[C@H](NC(=O)CCCCCCCCCCCCCCCCCCC(=O)O)C(=O)O)C(=O)N[C@@H](CC(N)=O)C(=O)N[C@@H]([C@@H](C)O)C(=O)N[C@@H](C)C(=O)N[C@@H]([C@@H](C)O)C(=O)N1)[C@@H](C)O)C(C)C)C(=O)N[C@@H](CC(C)C)C(=O)N[C@@H](CO)C(=O)N[C@@H](CO)C(=O)N[C@H](C(=O)N[C@@H](CC(=O)O)C(=O)N[C@H](C(=O)NCC(=O)N[C@@H](CO)C(=O)N[C@@H](CC(=O)O)C(=O)N[C@H](C(=O)N1CCC[C@H]1C(N)=O)[C@@H](C)O)C(C)C)[C@@H](C)O [Example 170, N-alpha-[(S)-4-Carboxy-4-(19-carboxynonadecanoylamino)butyryl]-[Glu14, Arg18, Ser21, Ser22, Ser28, Ser29, Asp31, Asp35, Pro37]-pramlintide] ({C20 diacid-γGlu}-KCNTATCATQRLAEFLVRSSSSFGPILSSTDVGSDTP-NH2; disulfide 2-7 (inferred); C-terminus assumed)	>45 h	>45 hr
CC[C@H](C)[C@H](NC(=O)[C@@H]1CCCN1C(=O)CNC(=O)[C@H](Cc1ccccc1)NC(=O)[C@H](CC(N)=O)NC(=O)[C@H](CC(N)=O)NC(=O)[C@H](CO)NC(=O)[C@H](CO)NC(=O)[C@H](Cc1c[nH]cn1)NC(=O)[C@H](CCCNC(=N)N)NC(=O)[C@H](CC(C)C)NC(=O)[C@H](Cc1ccccc1)NC(=O)[C@H](CCC(=O)O)NC(=O)[C@H](C)NC(=O)[C@H](CC(C)C)NC(=O)[C@H](CCCNC(=N)N)NC(=O)[C@H](CCC(N)=O)NC(=O)[C@@H](NC(=O)[C@H](C)NC(=O)[C@@H]1CSSC[C@H](NC(=O)[C@H](CCC(=O)O)NC(=O)[C@H](CCCNC(=N)N)NC(=O)[C@H](CCC(=O)O)NC(=O)CC[C@H](NC(=O)CCCCCCCCCCCCCCCCCCC(=O)O)C(=O)O)C(=O)N[C@@H](CC(N)=O)C(=O)N[C@@H]([C@@H](C)O)C(=O)N[C@@H](C)C(=O)N[C@@H]([C@@H](C)O)C(=O)N1)[C@@H](C)O)C(=O)N[C@@H](CC(C)C)C(=O)N1CCC[C@H]1C(=O)N1CCC[C@H]1C(=O)N[C@H](C(=O)N[C@@H](CC(N)=O)C(=O)N[C@H](C(=O)NCC(=O)N[C@@H](CO)C(=O)N[C@@H](CC(N)=O)C(=O)N[C@H](C(=O)N1CCC[C@H]1C(N)=O)[C@@H](C)O)C(C)C)[C@@H](C)O [Example 124, N-alpha-[(S)-4-Carboxy-4-(19-carboxynonadecanoylamino)butyryl]-Glu-Arg-[Glu1, Glu14, Arg17, Pro37]-pramlintide] ({C20 diacid-γGlu}-ERECNTATCATQRLAEFLRHSSNNFGPILPPTNVGSNTP-NH2; disulfide 4-9)	>45 h	>45 hr
